In patent publication US20140072630A1, “COMBINATION THERAPY WITH NANOPARTICLE COMPOSITIONS OF TAXANE AND HEDGEHOG INHIBITORS” (ABRAXIS BIOSCIENCE, LLC, priority 2009, published 2014):
Values joined by “and” are separate entries in the source; they are usually repeats but may differ in a detail not shown here. Identical values can stand only once.

How the values were obtained:
[1] = biological target: Ab1(h) (Homo sapiens, UniProt P00519); assay: Kinase inhibition at 1 μM; format: biochemical; conditions: 1 μM of compound
Text: (§1) The activities of various hedgehog inhibitors (ABI2012, ABI1914, ABI2008, and ABI1915) on kinase inhibition were studied. […] The compounds were stable in microsomes.

[2] = biological target: Aurora-A(h) (Homo sapiens, UniProt O14965); assay: Kinase inhibition at 1 μM; format: biochemical; conditions: 1 μM of compound
Chain of Aurora-A(h) (O14965 whole entry): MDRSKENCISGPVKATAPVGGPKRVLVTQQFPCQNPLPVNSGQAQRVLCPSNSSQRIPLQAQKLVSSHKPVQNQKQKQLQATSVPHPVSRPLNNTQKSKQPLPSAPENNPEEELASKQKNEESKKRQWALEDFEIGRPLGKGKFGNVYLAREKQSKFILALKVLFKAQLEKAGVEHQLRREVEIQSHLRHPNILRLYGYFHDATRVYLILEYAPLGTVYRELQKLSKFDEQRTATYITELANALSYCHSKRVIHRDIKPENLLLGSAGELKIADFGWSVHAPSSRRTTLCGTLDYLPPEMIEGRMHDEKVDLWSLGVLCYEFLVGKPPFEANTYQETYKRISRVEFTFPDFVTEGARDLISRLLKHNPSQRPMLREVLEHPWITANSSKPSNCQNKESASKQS
Text: as §1

[3] = biological target: EGFR(h) (Homo sapiens, UniProt P00533); assay: Kinase inhibition at 1 μM; format: biochemical; conditions: 1 μM of compound
Text: as §1

[4] = biological target: EphB4(h) (Homo sapiens, UniProt P54760); assay: Kinase inhibition at 1 μM; format: biochemical; conditions: 1 μM of compound
Chain of EphB4(h) (P54760 16-987): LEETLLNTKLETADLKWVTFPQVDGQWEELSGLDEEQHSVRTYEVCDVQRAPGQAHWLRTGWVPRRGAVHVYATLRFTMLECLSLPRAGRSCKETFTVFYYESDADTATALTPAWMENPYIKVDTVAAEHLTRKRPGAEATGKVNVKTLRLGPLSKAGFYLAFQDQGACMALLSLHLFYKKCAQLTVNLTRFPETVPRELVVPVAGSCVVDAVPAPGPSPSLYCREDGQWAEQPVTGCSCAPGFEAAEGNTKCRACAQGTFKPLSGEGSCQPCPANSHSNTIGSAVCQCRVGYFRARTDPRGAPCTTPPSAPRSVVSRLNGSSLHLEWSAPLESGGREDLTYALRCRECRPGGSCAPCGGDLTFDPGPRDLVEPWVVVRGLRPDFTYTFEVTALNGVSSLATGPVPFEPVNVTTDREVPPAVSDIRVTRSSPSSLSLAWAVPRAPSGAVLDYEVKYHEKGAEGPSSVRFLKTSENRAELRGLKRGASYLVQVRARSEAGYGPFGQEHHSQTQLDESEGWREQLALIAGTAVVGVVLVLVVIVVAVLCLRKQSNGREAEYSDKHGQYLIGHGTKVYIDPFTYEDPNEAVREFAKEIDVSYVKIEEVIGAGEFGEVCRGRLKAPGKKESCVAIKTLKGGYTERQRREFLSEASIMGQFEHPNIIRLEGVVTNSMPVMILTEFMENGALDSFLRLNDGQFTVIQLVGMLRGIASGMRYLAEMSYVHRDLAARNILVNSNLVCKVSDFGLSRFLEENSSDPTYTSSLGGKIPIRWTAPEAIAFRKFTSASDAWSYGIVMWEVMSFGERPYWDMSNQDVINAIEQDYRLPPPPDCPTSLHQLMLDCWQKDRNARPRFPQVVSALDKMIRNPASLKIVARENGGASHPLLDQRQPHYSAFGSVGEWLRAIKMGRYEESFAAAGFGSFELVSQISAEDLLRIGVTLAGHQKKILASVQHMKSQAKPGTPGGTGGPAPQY
Text: as §1

[5] = biological target: Flt3(h) (Homo sapiens, UniProt P36888); assay: Kinase inhibition at 1 μM; format: biochemical; conditions: 1 μM of compound
Text: as §1

[6] = biological target: GF-1R(h), activate (Homo sapiens, UniProt P08069); assay: Kinase inhibition at 1 μM; format: biochemical; conditions: 1 μM of compound
Text: as §1

[7] = biological target: GSK3β(h) (Homo sapiens, UniProt P49841); assay: Kinase inhibition at 1 μM; format: biochemical; conditions: 1 μM of compound
Text: as §1

[8] = biological target: MEK1(h) (Homo sapiens, UniProt Q02750); assay: Kinase inhibition at 1 μM; format: biochemical; conditions: 1 μM of compound
Text: as §1

[9] = biological target: Met(h) (Homo sapiens, UniProt P08581); assay: Kinase inhibition at 1 μM; format: biochemical; conditions: 1 μM of compound
Text: as §1

[10] = biological target: PDGFRa(h) (Homo sapiens, UniProt P16234); assay: Kinase inhibition at 1 μM; format: biochemical; conditions: 1 μM of compound
Chain of PDGFRa(h) (P16234 24-1089): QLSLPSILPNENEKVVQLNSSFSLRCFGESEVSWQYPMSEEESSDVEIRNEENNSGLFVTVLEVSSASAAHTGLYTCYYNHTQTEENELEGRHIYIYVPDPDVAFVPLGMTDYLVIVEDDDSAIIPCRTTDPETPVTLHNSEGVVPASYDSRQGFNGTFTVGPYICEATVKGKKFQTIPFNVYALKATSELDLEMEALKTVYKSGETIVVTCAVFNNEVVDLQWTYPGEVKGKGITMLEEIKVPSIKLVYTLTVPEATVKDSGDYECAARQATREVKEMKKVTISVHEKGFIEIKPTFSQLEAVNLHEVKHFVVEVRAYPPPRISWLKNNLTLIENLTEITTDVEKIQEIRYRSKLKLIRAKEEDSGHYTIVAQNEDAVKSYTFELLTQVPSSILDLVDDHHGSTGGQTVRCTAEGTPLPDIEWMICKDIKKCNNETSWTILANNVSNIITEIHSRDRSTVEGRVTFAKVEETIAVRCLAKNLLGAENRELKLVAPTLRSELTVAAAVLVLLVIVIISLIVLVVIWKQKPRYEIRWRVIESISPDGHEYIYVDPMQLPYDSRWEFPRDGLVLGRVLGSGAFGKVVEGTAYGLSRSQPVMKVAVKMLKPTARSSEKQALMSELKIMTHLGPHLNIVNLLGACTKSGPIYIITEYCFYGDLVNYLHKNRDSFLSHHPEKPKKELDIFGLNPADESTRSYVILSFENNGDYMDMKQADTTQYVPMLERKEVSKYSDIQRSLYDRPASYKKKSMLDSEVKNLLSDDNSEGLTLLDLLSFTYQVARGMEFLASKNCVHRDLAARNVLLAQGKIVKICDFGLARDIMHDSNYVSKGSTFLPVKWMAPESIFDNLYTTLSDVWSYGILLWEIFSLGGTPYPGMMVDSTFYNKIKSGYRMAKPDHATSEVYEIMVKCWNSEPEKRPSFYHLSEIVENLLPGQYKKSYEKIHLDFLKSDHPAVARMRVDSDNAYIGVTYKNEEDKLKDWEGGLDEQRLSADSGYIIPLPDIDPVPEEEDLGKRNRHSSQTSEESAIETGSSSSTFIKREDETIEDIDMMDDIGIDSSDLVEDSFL
Text: as §1

[11] = biological target: PKBa(h) (Homo sapiens, UniProt P31749); assay: Kinase inhibition at 1 μM; format: biochemical; conditions: 1 μM of compound
Text: as §1

[12] = biological target: Ret(h) (Homo sapiens, UniProt P07949); assay: Kinase inhibition at 1 μM; format: biochemical; conditions: 1 μM of compound
Chain of Ret(h) (P07949 29-1114): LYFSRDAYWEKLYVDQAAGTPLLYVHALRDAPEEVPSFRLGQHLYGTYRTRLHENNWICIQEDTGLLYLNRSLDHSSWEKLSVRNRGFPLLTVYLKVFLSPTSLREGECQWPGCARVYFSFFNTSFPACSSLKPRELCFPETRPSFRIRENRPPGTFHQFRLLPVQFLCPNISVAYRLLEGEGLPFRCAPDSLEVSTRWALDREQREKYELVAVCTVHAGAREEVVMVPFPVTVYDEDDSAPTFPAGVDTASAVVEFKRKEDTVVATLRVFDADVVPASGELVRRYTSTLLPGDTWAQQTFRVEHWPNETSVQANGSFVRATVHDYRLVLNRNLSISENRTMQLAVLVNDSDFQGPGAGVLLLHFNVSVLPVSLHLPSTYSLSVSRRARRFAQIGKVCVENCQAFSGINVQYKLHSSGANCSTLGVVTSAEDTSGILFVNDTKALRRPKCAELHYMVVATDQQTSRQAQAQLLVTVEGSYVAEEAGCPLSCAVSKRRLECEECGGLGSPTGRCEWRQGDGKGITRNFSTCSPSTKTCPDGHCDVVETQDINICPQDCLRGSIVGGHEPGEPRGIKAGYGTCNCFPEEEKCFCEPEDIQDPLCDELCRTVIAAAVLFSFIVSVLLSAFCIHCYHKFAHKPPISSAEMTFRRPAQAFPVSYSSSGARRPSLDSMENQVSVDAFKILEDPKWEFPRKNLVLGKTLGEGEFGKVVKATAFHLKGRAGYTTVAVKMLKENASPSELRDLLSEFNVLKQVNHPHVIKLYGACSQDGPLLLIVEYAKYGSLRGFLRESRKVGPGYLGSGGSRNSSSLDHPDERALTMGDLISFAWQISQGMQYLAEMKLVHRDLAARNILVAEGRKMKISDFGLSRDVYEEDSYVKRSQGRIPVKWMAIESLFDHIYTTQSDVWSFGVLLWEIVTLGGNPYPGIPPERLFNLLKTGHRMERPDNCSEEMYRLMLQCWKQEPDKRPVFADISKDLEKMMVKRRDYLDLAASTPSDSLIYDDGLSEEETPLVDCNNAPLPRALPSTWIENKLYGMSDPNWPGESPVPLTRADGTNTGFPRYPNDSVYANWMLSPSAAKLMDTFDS
Text: as §1

[13] = biological target: TrkA(h) (Homo sapiens, UniProt P04629); assay: Kinase inhibition at 1 μM; format: biochemical; conditions: 1 μM of compound
Text: as §1

[14] = biological target: cKit(h) (Homo sapiens, UniProt P10721); assay: Kinase inhibition at 1 μM; format: biochemical; conditions: 1 μM of compound
Chain of cKit(h) (P10721 26-976): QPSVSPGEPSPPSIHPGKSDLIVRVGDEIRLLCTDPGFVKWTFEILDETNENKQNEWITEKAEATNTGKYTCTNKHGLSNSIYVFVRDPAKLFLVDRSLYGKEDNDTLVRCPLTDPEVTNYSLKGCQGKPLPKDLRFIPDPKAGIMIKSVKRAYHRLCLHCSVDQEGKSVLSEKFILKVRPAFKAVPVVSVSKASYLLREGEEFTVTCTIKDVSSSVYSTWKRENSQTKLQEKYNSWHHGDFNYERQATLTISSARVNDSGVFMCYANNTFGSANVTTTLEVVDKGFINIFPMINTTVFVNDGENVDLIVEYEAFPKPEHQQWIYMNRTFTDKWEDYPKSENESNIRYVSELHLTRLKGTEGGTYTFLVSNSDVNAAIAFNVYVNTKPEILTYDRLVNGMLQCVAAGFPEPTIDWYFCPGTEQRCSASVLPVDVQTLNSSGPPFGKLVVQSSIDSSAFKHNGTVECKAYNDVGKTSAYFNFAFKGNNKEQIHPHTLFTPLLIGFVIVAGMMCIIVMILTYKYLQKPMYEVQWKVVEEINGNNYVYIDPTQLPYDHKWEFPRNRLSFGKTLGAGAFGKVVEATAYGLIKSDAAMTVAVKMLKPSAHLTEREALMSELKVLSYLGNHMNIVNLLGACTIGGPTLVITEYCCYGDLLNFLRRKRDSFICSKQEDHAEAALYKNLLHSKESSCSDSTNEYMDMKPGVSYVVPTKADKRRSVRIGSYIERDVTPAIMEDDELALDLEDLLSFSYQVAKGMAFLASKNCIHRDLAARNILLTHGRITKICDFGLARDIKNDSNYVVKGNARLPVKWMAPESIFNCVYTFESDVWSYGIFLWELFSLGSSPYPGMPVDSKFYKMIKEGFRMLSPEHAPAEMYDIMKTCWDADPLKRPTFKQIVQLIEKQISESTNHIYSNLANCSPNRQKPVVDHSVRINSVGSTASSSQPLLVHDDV
Text: as §1

[15] = biological target: cSRC(h) (Homo sapiens, UniProt P12931); assay: Kinase inhibition at 1 μM; format: biochemical; conditions: 1 μM of compound
Chain of cSRC(h) (P12931 whole entry): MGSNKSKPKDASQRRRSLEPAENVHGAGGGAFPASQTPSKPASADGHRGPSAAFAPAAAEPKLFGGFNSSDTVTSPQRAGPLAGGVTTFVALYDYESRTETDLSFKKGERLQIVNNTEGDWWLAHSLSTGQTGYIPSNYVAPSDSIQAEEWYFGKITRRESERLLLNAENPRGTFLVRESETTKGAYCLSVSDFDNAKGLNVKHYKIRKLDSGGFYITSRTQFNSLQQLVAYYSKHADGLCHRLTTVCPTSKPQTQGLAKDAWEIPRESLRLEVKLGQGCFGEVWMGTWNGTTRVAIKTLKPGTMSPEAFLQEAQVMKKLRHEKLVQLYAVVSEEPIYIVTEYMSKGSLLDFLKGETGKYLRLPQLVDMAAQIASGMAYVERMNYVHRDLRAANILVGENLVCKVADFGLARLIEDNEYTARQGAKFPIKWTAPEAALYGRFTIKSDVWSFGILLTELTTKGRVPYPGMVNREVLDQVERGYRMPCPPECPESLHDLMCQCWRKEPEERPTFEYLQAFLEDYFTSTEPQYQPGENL
Text: as §1

[16] = biological target: mTOR(h) (Homo sapiens, UniProt P42345); assay: Kinase inhibition at 1 μM; format: biochemical; conditions: 1 μM of compound
Text: as §1

[17] = test system: human colon adenocarcinoma HT29 xenograft; assay: Tumor growth in human colon adenocarcinoma HT29 xenograft model; format: in vivo, mice; conditions: for tumor inhibition as single agent: i.p., 75 mg/kg qdx12 and 100 mg/kg qdx12
Procedure: The effects of each of ABI2012, ABI1914, ABI2088, and ABI2099 on tumor growth were studied in human colon adenocarcinoma HT29 xenograft model. Mice were implanted with HT29 cells and ABI2012, ABI1914, ABI2088, and […] were administered by intraperitoneal route (“i.p.”) to the mice at two dosages: 75 mg/kg qdx12 and 100 mg/kg qdx12. […] The body weights of the mice with HT 29 xenograft treated with ABI2012, ABI1914, ABI2088, or ABI2099 were monitored, as shown in FIGS. 5B and 5D.
The effects of the combination of various Hedgehog pathway inhibitors (ABI2012, ABI1914, ABI2088, or ABI2099) and Abraxane® were studied in HT29 xenograft model. Each of ABI2012, ABI1914, ABI2088, and ABI2099 was administered at 75 mg/kg qdx12, i.p. Abraxane® was administered at 10 mg/kg q4dx3, i.v. The tumor volumes were measured. […] The body weights of the mice with HT 29 xenograft treated with each of ABI2012, ABI1914, ABI2088, and ABI2099 in combination with Abraxane® were monitored, as shown in FIG. 6B.

[18] = Drug metabolism and pharmacokinetics, IV and oral dosing; format: in vivo
[19] = test system: murine Gli1 mRNA; assay: Q-RT-PCR of murine Gli1 mRNA in L3.6pl and ASPC-1 pancreatic cancer xenografts; format: in vivo, mice; conditions: IPI-926 orally 40 mg/kg, tumors collected 24 hours later; p<0.005
Text: (§2) The abilities of IPI-926 to regulate Gli1 expressions were examined in pancreatic cancer xenograft models of L3.6pl and ASPC-1. L3.6pl and ASPC-1 human pancreatic cell lines were implanted subcutaneously into mice. […] Human Hh ligand expression was detected and human Glil mRNA levels were not modulated with the treatment (data not shown).

[20] = test system: human Gli1 mRNA; assay: Q-RT-PCR of human Gli1 mRNA in L3.6pl and ASPC-1 pancreatic cancer xenografts; format: in vivo; conditions: IPI-926 orally 40 mg/kg, tumors collected 24 hours later; data not shown
Text: as §2

[21] = test system: L3.6pl pancreatic cancer xenograft; assay: Tumor perfusion by contrast-enhanced ultrasound in L3.6pl xenograft; format: in vivo, mice
Procedure: The effects of IPI-926 on tumor perfusion were examined in the L3.6pl pancreatic cancer xenograft model. The L3.6pl tumor cell line was injected subcutaneously and treatment with IPI-926 was initiated. IPI-926 or vehicle was administered orally at 40 mg/kg for seven consecutive days. Mice were subjected to ultrasound image analysis using perfusion contrast enhancement (microbubbles) during the imaging procedure. […] The time to reach peak contrast was measured and there was a decrease in the IPI-926 treated animals compared to vehicle-treated animals.

[22] = test system: L3.6pl pancreatic xenograft; assay: Tumor growth in L3.6pl pancreatic xenograft model; conditions: days post implant; IPI-926 40 mg/kg QOD, Abraxane 20 mg/kg QW1
Procedure: The L3.6pl human pancreatic cell line was implanted subcutaneously into mice and treatment was initiated on Day 10 after implant. IPI-926 was administered orally at 40 mg/kg every other day (“QOD”) and Abraxane® was administered i.v. at 20 mg/kg once a week (QW1). […] Mice remained on treatment and time to reach 1000 mm^3 was recorded. Once tumors reached 1000 mm^3, mice were taken off study.

[23] = test system: ASPC-1 human pancreatic tumor; assay: Tumor growth in ASPC-1 human pancreatic tumor model; conditions: day 41, compared to vehicle control; IPI-926 40 mg/kg orally QOD, Abraxane 20 mg/kg i.v. QW1
Procedure: The ASPC-1 human pancreatic cell line was implanted subcutaneously and treatment was initiated on day 20 after implant. IPI-926 was administered orally at 40 mg/kg QOD and Abraxane® was dosed i.v. at 20 mg/kg QW1. The final i.v. dose of Abraxane® was administered on day 34 and the final dose of IPI-926 was administered on day 41. Re-growth was monitored after the treatment stopped.

[24] = compound 75 mg/kg qdx12 i.p. + Abraxane 10 mg/kg q4dx3 i.v.

Row | inhibition at 1 µM [1] [%] | inhibition at 1 µM [2] [%] | inhibition at 1 µM [3] [%] | inhibition at 1 µM [4] [%] | inhibition at 1 µM [5] [%] | inhibition at 1 µM [6] [%] | inhibition at 1 µM [7] [%] | inhibition at 1 µM [8] [%] | inhibition at 1 µM [9] [%] | inhibition at 1 µM [10] [%] | inhibition at 1 µM [11] [%] | inhibition at 1 µM [12] [%] | inhibition at 1 µM [13] [%] | inhibition at 1 µM [14] [%] | inhibition at 1 µM [15] [%] | inhibition at 1 µM [16] [%] | F ([18]; Oral dosing) [%] | AUC(0-inf) ([18]; in vivo, IV dosing) [ng·h/mL] | Structure (SMILES) | tumor inhibition as single agent [17] | enhancement of the antitumor activity of Abraxane [17, 24] | other results
1 | -18 | 1 | -3 | -12 | -14 | -5 | 3 | -9 | 3 | -3 | 5 | -3 | -12 | -4 | 3 | 6 |  |  | CS(=O)(=O)c1ccc(C(=O)Nc2ccc(Cl)c(-c3nccc4ccccc34)c2)c(Cl)c1 [ABI1914] | none of ABI2012, ABI1914, ABI2088, and ABI2099 as single agent showed significant tumor inhibition effects |  | 
2 |  |  |  |  |  |  |  |  |  |  |  |  |  |  |  |  | 62 | 1390 ± 164 | CC(=O)Nc1ccc(C(=O)Nc2ccc(Cl)c(-c3nccc4ccccc34)c2)c(Cl)c1 [ABI2088] | none of ABI2012, ABI1914, ABI2088, and ABI2099 as single agent showed significant tumor inhibition effects | significantly enhanced the antitumor activity of Abraxane® | tumor growth inhibition in combination with Abraxane ([17]; day 22, compound 75 mg/kg qdx12 i.p. + Abraxane 10 mg/kg q4dx3 i.v.): about 100%; clearance ([18]; in vivo, IV dosing): 12.1 ± 1.59 mL/min/kg; half-life ([18]; in vivo, IV dosing): 78.6 ± 8.4 min; Vd ([18]; in vivo, IV dosing, read-out: Vss): 1.02 ± 0.11 L/kg; AUC(0-inf) ([18]; in vivo, Oral dosing): 4310 ± 1200 ng·h/mL; Cmax ([18]; in vivo, Oral dosing): 1000 ± 659 ng/mL; Tmax ([18]; in vivo, Oral dosing): 30 min
3 |  |  |  |  |  |  |  |  |  |  |  |  |  |  |  |  |  |  | Cc1cc(C(F)(F)F)ccc1C(=O)Nc1ccc(Cl)c(-c2nccc3ccccc23)c1 [ABI2099] | none of ABI2012, ABI1914, ABI2088, and ABI2099 as single agent showed significant tumor inhibition effects | significantly enhanced the antitumor activity of Abraxane® | 
4 | 13 | 7 | -9 | -33 | 1 | 8 | -4 | 2 | -19 | 0 | -19 | 1 | -7 | -4 | -1 | -6 | 53 | 3980 ± 1540 | CS(=O)(=O)c1ccc(C(=O)Nc2ccc(Cl)c(-c3ccccn3)c2)c(Cl)c1 [GDC-0449] | none of ABI2012, ABI1914, ABI2088, and ABI2099 as single agent showed significant tumor inhibition effects |  | clearance ([18]; in vivo, IV dosing): 4.65 ± 1.81 mL/min/kg; half-life ([18]; in vivo, IV dosing): 79.2 ± 15.5 min; AUC(0-inf) ([18]; in vivo, Oral dosing): 10500 ± 3150 ng·h/mL; Cmax ([18]; in vivo, Oral dosing): 2760 ± 1020 ng/mL; Tmax ([18]; in vivo, Oral dosing): 40 ± 17.3 min
5 |  |  |  |  |  |  |  |  |  |  |  |  |  |  |  |  |  |  | CC1=C2C[C@H]3[C@@H](CC[C@@H]4C[C@H](NS(C)(=O)=O)CC[C@@]43C)[C@@H]2CC[C@@]2(C1)O[C@@H]1C[C@H](C)CN[C@H]1[C@H]2C [IPI-926, IPI926] |  |  | murine Gli1 mRNA expression [19]: inhibition of murine Glil mRNA expression; human Gli1 mRNA levels [20]: not modulated; average peak time for contrast agent levels ([21]; 40 mg/kg orally for seven consecutive days, vehicle 11.0 seconds, p=0.0321): 4.75 s; Time to Peak (contrast) ([21]; individual mice, 40 mg/kg orally for seven consecutive days, 40 mg/kg): 3 s and 4 s and 6 s (2×); tumor perfusion ([21]; subcutaneous L3.6pl model, 40 mg/kg orally for seven days): increased tumor perfusion; median % of mice on study (mice taken off study when tumors reached 1000 mm^3) [22]: no effect as a single agent; tumor growth inhibition [23]: 38%
